Earlier results on 2 compounds are cited in patent publication US20210316006A1, “PYRROLOBENZODIAZEPINE CONJUGATES” (priority 2018, published 2021).

For data set [1] the following is noted: quoted from Mantaj et al. 2016.
The conditions of data set [2]: in vitro; quoted from Gregson et al. 1999.

Turning to `COc1cc2c(cc1OCCCOc1cc3c(cc1OC)C(=O)N1CCC[C@H]1C=N3)N=C[C@@H]1CCCN1C2=O` [DSB-120], the activity in vivo result in data set [1] is listed as “poor activity in vivo”.
As to `C=C1C[C@H]2C=Nc3cc(OCCCOc4cc5c(cc4OC)C(=O)N4CC(=C)C[C@H]4C=N5)c(OC)cc3C(=O)N2C1` [SG2000], in data set [2], the “cytotoxic potency relative to DSB-120” value was about 9000 fold.
